Test [1] has as its target T1, OsGA2ox3 (GA 2-oxidase 3) (Oryza sativa, UniProt Q8S0S6).
T1 construct: gene GA2OX3; full-length coding region in pGEX6P1, GST tag cut off with PreScission protease, E. coli Rosetta (DE3) pLysS; monomer, homotetramer with GA4
Kind of test: X-ray crystal structure, […] Å. In kind it is binding. Particulars: Fe(II) absent.

For test [2], the target named is T2, OsGA2ox3 (GA 2-oxidase 3) (Oryza sativa, UniProt Q8S0S6, C194A/K308A/K313A).
T2 construct: gene GA2OX3; full-length coding region in pGEX6P1, GST tag cut off with PreScission protease, E. coli Rosetta (DE3) pLysS; monomer, homotetramer with GA4
T2 sequence (Q8S0S6 whole entry C194A/K308A/K313A): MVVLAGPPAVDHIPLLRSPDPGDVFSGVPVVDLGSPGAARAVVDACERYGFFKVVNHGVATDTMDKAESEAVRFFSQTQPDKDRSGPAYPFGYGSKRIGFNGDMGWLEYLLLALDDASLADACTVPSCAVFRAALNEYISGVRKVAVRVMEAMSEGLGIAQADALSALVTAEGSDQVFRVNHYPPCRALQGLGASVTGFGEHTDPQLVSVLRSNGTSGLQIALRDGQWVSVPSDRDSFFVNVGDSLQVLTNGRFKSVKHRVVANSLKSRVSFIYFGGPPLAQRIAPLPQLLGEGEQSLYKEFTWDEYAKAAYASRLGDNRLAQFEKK
Kind of test: GC-SIM-MS of GA34, activity after incubation with GA4. In kind it is biochemical. Particulars: 3Mu, interface-site mutant; same.

The target of the next test is T3, OsGA2ox6 (Oryza sativa, UniProt Q7XP65).
T3 construct: gene GA2OX6; full-length coding region in pGEX6P1 (GST fusion); C20-type; monomer, dimer with GA4
T3 sequence (Q7XP65 1-358): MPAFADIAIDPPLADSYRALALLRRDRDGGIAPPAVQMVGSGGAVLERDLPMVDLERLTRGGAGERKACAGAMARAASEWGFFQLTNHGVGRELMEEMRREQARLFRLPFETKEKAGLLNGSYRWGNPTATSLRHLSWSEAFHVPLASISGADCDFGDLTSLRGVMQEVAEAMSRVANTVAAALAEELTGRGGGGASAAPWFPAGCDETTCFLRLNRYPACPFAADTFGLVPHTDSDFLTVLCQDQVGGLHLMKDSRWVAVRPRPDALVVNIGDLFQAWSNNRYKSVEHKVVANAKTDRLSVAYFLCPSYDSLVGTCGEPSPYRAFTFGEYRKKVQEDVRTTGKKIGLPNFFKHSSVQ
Kind of test: gel filtration, ligand-induced dimerization. In kind it is binding. The following applies: 10 mM GA4 incubation, 18 h, 25 °C, pH 7.4; interface (allosteric).

Test [3] addresses T4, OsGA2ox3 (GA 2-oxidase 3) (Oryza sativa, UniProt Q8S0S6, K308A).
T4 construct: gene GA2OX3; full-length coding region in pGEX6P1, GST tag cut off with PreScission protease, E. coli Rosetta (DE3) pLysS; monomer, homotetramer with GA4
Put plainly: GC-SIM-MS of GA34, activity after incubation with GA4. In kind it is biochemical. The following applies: interface-site mutant; 2-oxoglutarate, Fe(II), pH 7.9, 30 °C. The protocol:
GC-SIM-MS of GA34, activity after incubation with GA4 on OsGA2ox3 (GA 2-oxidase 3) | a single mutation, such as […] or 3Mu, led to no activation by GA4

Test [4] addresses T5, OsDAO (dioxygenase for auxin oxidation) (Oryza sativa, UniProt Q7XKU5).
T5 construct: gene DAO; full-length coding region in pGEX6P1, GST tag cut off with PreScission protease, E. coli Rosetta (DE3) pLysS; monomer, dimer with IAA
T5 sequence (Q7XKU5 1-300): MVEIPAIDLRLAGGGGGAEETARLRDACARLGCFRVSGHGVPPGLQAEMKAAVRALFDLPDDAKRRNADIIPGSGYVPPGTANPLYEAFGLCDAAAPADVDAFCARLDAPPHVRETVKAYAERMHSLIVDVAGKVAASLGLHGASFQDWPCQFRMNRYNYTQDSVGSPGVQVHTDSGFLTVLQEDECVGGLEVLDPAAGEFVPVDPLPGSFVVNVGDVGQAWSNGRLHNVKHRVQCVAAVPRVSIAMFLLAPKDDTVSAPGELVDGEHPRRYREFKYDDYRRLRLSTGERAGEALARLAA
Kind of test: X-ray crystal structure, […] Å. Type of test: binding. Particulars: allosteric, two IAA molecules at the dimer interface; crystallised with 2-oxoglutarate.

T1 sequence (Q8S0S6 whole entry): as the sequence (Q8S0S6 whole entry C194A/K308A/K313A) above, with A194C, A308K, A313K counted along it
T4 sequence (Q8S0S6 whole entry K308A): as the sequence (Q8S0S6 whole entry C194A/K308A/K313A) above, with A194C, A313K counted along it

With `O=C(O)CCC(=O)C(=O)O` [2OG], the “X-ray crystal structure, 2.15 Å” value in test [1] (active site, co-substrate, GA4 present) is “the amino acids interacting with 2OG (R269, S271, and Y183”.
With `C=C1C[C@]23C[C@H]1CC[C@H]2[C@@]12CC[C@H](O)[C@@](C)(C(=O)O1)[C@H]2[C@@H]3C(=O)O` [GA4], the “GC-SIM-MS of GA34, activity after incubation with GA4” value in test [2] was “no activation of 3Mu occurred at all”; in test [3], “a single mutation, such as K308A or 3Mu, led to no activation by GA4”. The “gel filtration, ligand-induced dimerization” value at OsGA2ox6 is on record as “The presence of GA4 induced a new peak of its dimer form”. Further, the “X-ray crystal structure, 2.15 Å” value in test [1] (active site and second site (allosteric, subunit interface), 2-oxoglutarate present) is “We crystallized the enzyme with the co-substrates, 2OG and GA4 in the absence Fe(II)”.
As for `O=C(O)Cc1c[nH]c2ccccc12` [indole-3-acetic acid], the “X-ray crystal structure, 2.0 Å” value in test [4] is reported as “We elucidated the crystal structure of OsDAO complexed with its substrate, IAA”.

The values are drawn from paper PMC7195466, “A common allosteric mechanism regulates homeostatic inactivation of auxin and gibberellin” (Nature Communications, 2020).
